Experimental data as given in paper PMC9102502, “The Influence of Selected Antipsychotic Drugs on Biochemical Aspects of Alzheimer’s Disease” (International Journal of Molecular Sciences, 2022).
Like-named read-outs stand apart in the source and are kept apart here.

Columns and labels:
[1] = biological target: T1, recombinant human β-amyloid (1–42) (Homo sapiens, UniProt P05067); test: Beta-amyloid aggregation, Thioflavin T fluorescence; type: biochemical; details: 24 and 48 h; both tested concentrations
T1 construct: recombinant human β-amyloid (1–42; ultrapure); purchased Sigma-Aldrich (St. Louis, MO, USA)
T1 sequence (P05067 672-713 limits assumed): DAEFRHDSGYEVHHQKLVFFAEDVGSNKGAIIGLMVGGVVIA
Outline: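 Aβ42 (DMSO stock, pre-warmed 15 min at 37 °C) at 20 μmol/L final incubated with antipsychotics at TPC and 1/2 × TPC, with 5 µmol/L ThT added. Fluorescence (Ex/Em 440/484 nm, room temperature) read at 10, 30, 60, 90 min, 24 and 48 h; peptide-only control set as 100% aggregation.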

[2] = tested on: human erythrocytes; details: 80 μg/L, AAPH 50 mmol/L
Experimental: The blood samples were centrifuged (3000 rpm, 10 min, 20 °C, Micro 22 R centrifuge, Hettich Zentrifugen, Tuttlingen, Germany) to separate erythrocytes from the plasma and washed three times with 0.9% saline (NaCl). […] The erythrocytes were suspended in 0.9% saline. As control of basal hemolysis, erythrocytes were incubated with 0.9% NaCl. For total hemolysis control erythrocytes were incubated with 2.0% v/v Triton X-100. Incubation with Triton X-100 and K4[Fe(CN)6] (at concentration 50 g/L) was performed to control methemoglobin (MetHb) formation. Moreover, an antioxidant control containing ascorbic acid (AA) at a concentration of 10 µg/mL was prepared, while AAPH at a concentration of 50 mmol/L was an oxidizing agent. Antipsychotics at concentrations equaling their maximum therapeutic plasma concentrations (TPCmax), as well as 5-fold higher (5 × TPCmax) and 5-fold lower than TPCmax (1/5 × TPCmax), and the oxidizing agent AAPH at a concentration of 50 mmol/L, were added to 2% RBC suspension. Controls and tested samples were incubated at 37 °C. […] The percentage of hemolysis was calculated with the following formula:Hemolysis (%) = (Asample/Atotal hemolysis) × 100%(1) where Asample—absorbance of the test sample; Atotal hemolysis—the absorbance of the reference sample with 2% Triton X solution, corresponding to complete hemolysis.

[3] = biological target: T2, human plasma butyrylcholinesterase (Homo sapiens, UniProt P06276); test: BuChE inhibition, modified Ellman's method; type: biochemical; details: experimental data; mean ± SD, n = 6–9; read-out: IC50 BuChE
T2 construct: The solution of plasma 200-fold diluted with 0.9% NaCl; from tissue; host or cells: citrated plasma from blood of healthy human donors
T2 sequence (P06276 29-602): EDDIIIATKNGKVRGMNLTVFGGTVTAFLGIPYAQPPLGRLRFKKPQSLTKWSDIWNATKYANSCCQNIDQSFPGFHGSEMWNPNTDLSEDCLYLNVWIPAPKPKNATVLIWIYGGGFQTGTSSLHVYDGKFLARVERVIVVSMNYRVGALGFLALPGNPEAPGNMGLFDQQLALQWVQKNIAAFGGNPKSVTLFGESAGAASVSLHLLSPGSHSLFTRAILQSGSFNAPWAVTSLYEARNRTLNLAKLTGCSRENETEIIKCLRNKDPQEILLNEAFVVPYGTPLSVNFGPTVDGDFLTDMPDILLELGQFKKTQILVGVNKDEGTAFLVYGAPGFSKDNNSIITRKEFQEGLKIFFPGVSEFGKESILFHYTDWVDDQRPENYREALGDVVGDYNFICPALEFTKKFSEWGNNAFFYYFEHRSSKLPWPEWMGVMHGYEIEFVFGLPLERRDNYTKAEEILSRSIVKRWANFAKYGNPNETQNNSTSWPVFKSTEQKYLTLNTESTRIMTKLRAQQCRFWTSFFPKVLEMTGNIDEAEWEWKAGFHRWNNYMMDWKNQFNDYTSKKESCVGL

OCCOCCN1CCN(C2=Nc3ccccc3Sc3ccccc32)CC1 [Quetiapine, quetiapine]
effect on Aβ aggregation after a longer incubation time [1]: substantially inhibit | RBCs hemolysis with AAPH ([2]; 5 h, AAPH control 53.4%): 23.9% | RBCs hemolysis with AAPH ([2]; 24 h, AAPH control 45.9%): 51.9% | IC50 [3]: 6.08 ± 1.63 µM
